Reference: ChEMBL document CHEMBL1201862, “PubChem BioAssay data set” (2004)
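Five concentrations, 48 hours, 96-well plates. Here, GI50 denotes the concentration required for 50% inhibition of growth.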 The source made the active and inactive calls. Cut-off read from the data, not from the text of the source: active = GI50 up to about 1.1 µM and inactive = higher.

Columns and labels:
Assay in all cases: NCI-60 cell line screen, 48 h
[1] = system: SK-MEL-5
[2] = system: OVCAR-4
[3] = system: HCC 2998
[4] = system: OVCAR-5
[5] = system: HCT-15
[6] = system: HL-60
[7] = system: SK-MEL-2
[8] = system: M14
[9] = system: UO-31
[10] = system: ACHN
[11] = system: NCI/ADR-RES
[12] = system: Malme-3M
[13] = system: MOLT-4
[14] = system: RXF 393
[15] = system: 786-0
[16] = system: MDA-MB-231
[17] = system: U-251
[18] = system: MCF7
[19] = system: SF-539
[20] = system: LOX IMVI

Structure (SMILES) | GI50 [1] | GI50 [2] | GI50 [3] | GI50 [4] | GI50 [5] [µM] | GI50 [6] | GI50 [7] | GI50 [8] | GI50 [9] | GI50 [10] | GI50 [11] | GI50 [12] | GI50 [13] | GI50 [14] | GI50 [15] | GI50 [16] | GI50 [17] | GI50 [18] | GI50 [19] | GI50 [20]
O=C(O)[C@H]1NC[C@H]2C(Br)=NO[C@@H]12 | > 100 µM (inactive) | > 100 µM (inactive) | > 100 µM (inactive) | > 100 µM (inactive) | > 100 | > 100 µM (inactive) | > 100 µM (inactive) | > 100 µM (inactive) | > 100 µM (inactive) | > 100 µM (inactive) | > 100 µM (inactive) | > 100 µM (inactive) | > 100 µM (inactive) | > 100 µM (inactive) | > 100 µM (inactive) | > 100 µM (inactive) | > 100 µM (inactive) | > 100 µM (inactive) | > 100 µM (inactive) | > 100 µM (inactive)
CC(C)(CN1CCCCC1)C(=O)/C=C/c1ccc(/C=C/C(=O)C(C)(C)CN2CCCCC2)cc1 | 1.04 µM (active) | 0.368 µM (active) | 0.35 µM (active) | 0.726 µM (active) | 0.204 | 0.116 µM (active) | 1.25 µM (inactive) | 0.908 µM (active) | 1.14 µM (inactive) | 0.264 µM (active) | 0.393 µM (active) | 0.871 µM (active) | 0.11 µM (active) | 0.28 µM (active) | 0.446 µM (active) | 0.196 µM (active) | 0.273 µM (active) | 0.247 µM (active) | 0.538 µM (active) | 0.268 µM (active)
Clc1cc2nc(C3CCCCO3)[nH]c2cc1Cl (stereo not given) | 6.03 µM (inactive) | 34.4 µM (inactive) | 38 µM (inactive) | > 63.1 µM (inactive) | 6.98 | 4.78 µM (inactive) | > 100 µM (inactive) | 28.5 µM (inactive) | 11.1 µM (inactive) | 54.8 µM (inactive) | 12.1 µM (inactive) | 38.5 µM (inactive) | 33.3 µM (inactive) | 8.17 µM (inactive) | 34 µM (inactive) | 34.3 µM (inactive) | 34.3 µM (inactive) | 3.48 µM (inactive) | 26.8 µM (inactive) | 20.3 µM (inactive)
O=C1Nc2cc([N+](=O)[O-])ccc2N/C1=C/C(=O)c1ccc(Cl)cc1 | 15.9 µM (inactive) | 20.4 µM (inactive) | 23.6 µM (inactive) | 21.5 µM (inactive) | 12.6 | 19.8 µM (inactive) | 16.9 µM (inactive) | 12.9 µM (inactive) | 25.1 µM (inactive) | 15.1 µM (inactive) | 7.71 µM (inactive) | 26.3 µM (inactive) | 17 µM (inactive) | 3.39 µM (inactive) | 3.13 µM (inactive) | 5.83 µM (inactive) | 6.56 µM (inactive) | 11.2 µM (inactive) | 10.7 µM (inactive) | 11.3 µM (inactive)
O=C(c1ccccc1)c1cc[n+](C2=C([N-]S(=O)(=O)c3ccccc3)C(=O)c3ccccc3C2=O)cc1 | 2.01 µM (inactive) | 13.1 µM (inactive) | 11.4 µM (inactive) | 19.2 µM (inactive) | 14.4 | 2.15 µM (inactive) | 3 µM (inactive) | 11.1 µM (inactive) | 11.7 µM (inactive) | 12.7 µM (inactive) | 9.38 µM (inactive) | 4.34 µM (inactive) | 3.05 µM (inactive) | 12.4 µM (inactive) | 7.13 µM (inactive) | 12.9 µM (inactive) | 4.38 µM (inactive) | 8.79 µM (inactive) | 12.9 µM (inactive) | 2.42 µM (inactive)
O=C1CCCc2cc3c(cc21)CCC3C(=O)O (stereo not given) | > 100 µM (inactive) | > 100 µM (inactive) | > 100 µM (inactive) | > 100 µM (inactive) | > 100 | > 100 µM (inactive) | > 100 µM (inactive) | > 100 µM (inactive) | > 100 µM (inactive) | > 100 µM (inactive) | > 100 µM (inactive) | > 100 µM (inactive) | > 100 µM (inactive) | > 100 µM (inactive) | > 100 µM (inactive) | > 100 µM (inactive) | > 100 µM (inactive) | > 100 µM (inactive) | > 100 µM (inactive) | > 100 µM (inactive)
COc1cc2oc(-c3ccc(O)cc3)cc(=O)c2c(OC)c1O | 49.4 µM (inactive) | > 100 µM (inactive) | 96.8 µM (inactive) | > 100 µM (inactive) | 92.7 | 21.2 µM (inactive) | > 100 µM (inactive) | > 100 µM (inactive) | 33.2 µM (inactive) | 32.7 µM (inactive) | > 100 µM (inactive) | > 100 µM (inactive) | > 100 µM (inactive) | 29 µM (inactive) | 36 µM (inactive) | 46.9 µM (inactive) | 38.9 µM (inactive) | > 100 µM (inactive) | > 100 µM (inactive) | 60.5 µM (inactive)
CC12CCC(C(=O)n3c1nc1ccccc13)C(C)(C)O2 (stereo not given) | 49 µM (inactive) | > 100 µM (inactive) | > 100 µM (inactive) | > 100 µM (inactive) | > 100 | > 100 µM (inactive) | > 100 µM (inactive) | > 100 µM (inactive) | 75.3 µM (inactive) | > 100 µM (inactive) | > 100 µM (inactive) | > 100 µM (inactive) | > 100 µM (inactive) | > 100 µM (inactive) | > 100 µM (inactive) | > 100 µM (inactive) | > 100 µM (inactive) | > 100 µM (inactive) | > 100 µM (inactive) | > 100 µM (inactive)
CCCC(=O)OCC1OC(n2cc(F)c(=O)[nH]c2=O)CC1OC(=O)CCC (stereo not given) | 0.279 µM (active) | > 10 µM (inactive) | 0.0113 µM (active) | > 10 µM (inactive) | > 4.41 | 0.247 µM (active) | > 10 µM (inactive) | 0.312 µM (active) | 0.13 µM (active) | 0.0441 µM (active) | 1.55 µM (inactive) | > 6.43 µM (inactive) | 4.63 µM (inactive) | > 9.2 µM (inactive) | 0.434 µM (active) | > 10 µM (inactive) | 3.26 µM (inactive) | 0.0169 µM (active) | 0.00511 µM (active) | 0.0236 µM (active)
CN(C)c1n/c(=N/Cc2ccco2)ss1 | 2.76 µM (inactive) | 30.3 µM (inactive) | 52.8 µM (inactive) | > 40.5 µM (inactive) | 21.3 | 1.59 µM (inactive) | > 21.1 µM (inactive) | 21 µM (inactive) | 28.8 µM (inactive) | 25.9 µM (inactive) | 75.3 µM (inactive) | 18.7 µM (inactive) | 5.73 µM (inactive) | 7.98 µM (inactive) | 3.65 µM (inactive) | 15.8 µM (inactive) | 31.5 µM (inactive) | 16.4 µM (inactive) | 13 µM (inactive) | 18.5 µM (inactive)
